This passage reports inhibition results from patent publication US9187471B2, “Pyrido [4,3-b] indole and pyrido [3,4-b] indole derivatives and methods of use” (Medivation Technologies, Inc., priority 2010, dated 2015).

The target in experiment [1] is T1, rat adrenergic α1A receptor (Rattus norvegicus, UniProt P43140).
T1 construct: rat adrenergic α1A receptor obtained from Wistar Rat submaxillary glands; from tissue; host or cells: Wistar rat submaxillary glands
T1 sequence (P43140 1-466): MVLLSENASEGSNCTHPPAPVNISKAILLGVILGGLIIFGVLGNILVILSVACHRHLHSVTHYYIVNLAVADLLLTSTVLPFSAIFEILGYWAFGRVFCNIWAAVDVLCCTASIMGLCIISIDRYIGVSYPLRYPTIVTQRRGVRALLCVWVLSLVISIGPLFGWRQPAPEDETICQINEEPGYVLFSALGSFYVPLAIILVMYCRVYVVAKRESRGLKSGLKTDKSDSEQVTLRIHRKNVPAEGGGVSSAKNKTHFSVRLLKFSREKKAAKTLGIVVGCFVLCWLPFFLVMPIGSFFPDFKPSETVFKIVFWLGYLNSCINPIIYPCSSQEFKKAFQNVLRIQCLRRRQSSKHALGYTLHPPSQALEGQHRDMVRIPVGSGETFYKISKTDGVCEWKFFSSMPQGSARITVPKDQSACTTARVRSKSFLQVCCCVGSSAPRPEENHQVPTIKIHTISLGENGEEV
The experiment in a line: Adrenergic α1A radioligand binding ([3H]Prazosin). Particulars: read-out: Adrenergic (0.1 μM) a1A, percent inhibition of specific binding; compound at 0.1 μM; 0.25 nM [3H]Prazosin. In outline:
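Wistar rat submaxillary gland receptor in 50 mM Tris-HCl pH 7.4 with 0.5 mM EDTA, incubated with compound and 0.25 nM [3H]Prazosin for 60 min at 25 °C.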

Experiment [2] concerns the target T2, human recombinant adrenergic α2C receptor (Homo sapiens, UniProt P18825).
T2 construct: expressed in transfected cells; host or cells: insect Sf9 cells
T2 sequence (P18825 1-462): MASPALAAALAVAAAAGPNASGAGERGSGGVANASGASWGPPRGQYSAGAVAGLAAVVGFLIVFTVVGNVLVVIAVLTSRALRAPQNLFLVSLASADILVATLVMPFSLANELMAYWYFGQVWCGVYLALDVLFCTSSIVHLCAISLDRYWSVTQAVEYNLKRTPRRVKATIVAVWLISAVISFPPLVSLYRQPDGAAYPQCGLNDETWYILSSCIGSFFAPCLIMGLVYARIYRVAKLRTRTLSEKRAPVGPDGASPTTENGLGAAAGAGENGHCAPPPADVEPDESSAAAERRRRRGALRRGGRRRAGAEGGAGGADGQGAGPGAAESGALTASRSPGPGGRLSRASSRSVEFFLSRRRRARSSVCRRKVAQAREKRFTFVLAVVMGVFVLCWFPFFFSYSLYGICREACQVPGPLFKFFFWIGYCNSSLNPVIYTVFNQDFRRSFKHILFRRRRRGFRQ
The experiment in a line: Adrenergic α2C radioligand binding ([3H]MK-912). Particulars: read-out: Adrenergic (0.1 μM) a2C, percent inhibition of specific binding; compound at 0.1 μM; 1 nM [3H]MK-912. Summed up: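 Membranes from Sf9 cells expressing the human receptor, in 50 mM Tris-HCl pH 7.4 with 12.5 mM MgCl2 and 2 mM EDTA, incubated with compound and 1 nM [3H]MK-912 for 60 min at 25 °C. Non-specific binding defined with 10 μM WB-4101. Filter-bound radioactivity counted; percent inhibition of specific binding reported.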

For experiment [3], the target named is T3, human recombinant dopamine D2L receptor (Homo sapiens, UniProt P14416).
T3 construct: expressed in transfected cells; host or cells: CHO
The experiment in a line: Dopamine D2L radioligand binding ([3H]Spiperone). The note with it: 0.16 nM [3H]Spiperone; for inhibition at 0.1 µM: read-out: Dopamine D2L (0.1 μM), percent inhibition of specific binding, compound at 0.1 μM. On the procedure:
Non-specific binding was estimated in the presence of 10 μM Haloperidol. Receptor proteins were filtered and washed, the filters were then counted to determine [^3H]Spiperone specifically bound.

Experiment [4] concerns the target T4, human recombinant serotonin (5-Hydroxytryptamine) 5-HT2A receptor (Homo sapiens, UniProt P28223).
T4 construct: expressed in transfected cells; host or cells: CHO-K1
The experiment in a line: Serotonin 5-HT2A radioligand binding ([3H]Ketanserin). Particulars: compound at 0.1 μM; read-out: Inhibition of ligand binding, Serotonin 5-HT2A (percent inhibition of specific binding). The method, then:
Compounds of the invention were incubated with 0.5 nM [^3H]Ketanserin for 60 min at 25° C. Non-specific binding was estimated in the presence of 1 μM Mianserin. Receptor proteins were filtered and washed, the filters were then counted to determine [^3H]Ketanserin specifically bound.

Experiment [5] addresses T5, human recombinant serotonin (5-Hydroxytryptamine) 5-HT5A receptor (Homo sapiens, UniProt P47898).
T5 construct: expressed in transfected cells; host or cells: CHO-K1
The experiment in a line: Serotonin 5-HT5A radioligand binding ([3H]LSD). The note with it: compound at 0.1 μM; read-out: Inhibition of ligand binding, Serotonin 5-HT5A (percent inhibition of specific binding). The method, then:
Compounds of the invention were incubated with 1.7 nM [^3H]Lysergic acid diethylamide (LSD) for 60 min at 37° C. […] Receptor proteins were filtered and washed, the filters were counted to determine [^3H]LSD specifically bound.

For experiment [6], the target named is T6, human recombinant serotonin (5-Hydroxytryptamine) 5-HT6 receptor (Homo sapiens, UniProt P50406).
T6 construct: expressed in transfected cells; host or cells: HeLa
The experiment in a line: Serotonin 5-HT6 radioligand binding ([3H]LSD). Particulars: compound at 0.1 μM; read-out: Inhibition of ligand binding, Serotonin 5-HT6 (percent inhibition of specific binding). The text has this:
Receptor proteins were filtered and washed, the filters were then counted to determine [3H]LSD specifically bound.

The target of experiment [7] is T7, human recombinant serotonin (5-Hydroxytryptamine) 5-HT7 receptor (Homo sapiens, UniProt P34969).
T7 construct: expressed in transfected cells; host or cells: CHO
The experiment in a line: Serotonin 5-HT7 radioligand binding ([3H]LSD). Particulars: compound at 0.1 μM; read-out: Inhibition of ligand binding, Serotonin 5-HT7 (percent inhibition of specific binding). The method, then:
Lysergic acid diethylamide (LSD) for 120 min. at 25° C. […] Receptor proteins were filtered and washed, the filters were then counted to determine [^3H]LSD specifically bound.

T6 sequence (P50406 whole entry): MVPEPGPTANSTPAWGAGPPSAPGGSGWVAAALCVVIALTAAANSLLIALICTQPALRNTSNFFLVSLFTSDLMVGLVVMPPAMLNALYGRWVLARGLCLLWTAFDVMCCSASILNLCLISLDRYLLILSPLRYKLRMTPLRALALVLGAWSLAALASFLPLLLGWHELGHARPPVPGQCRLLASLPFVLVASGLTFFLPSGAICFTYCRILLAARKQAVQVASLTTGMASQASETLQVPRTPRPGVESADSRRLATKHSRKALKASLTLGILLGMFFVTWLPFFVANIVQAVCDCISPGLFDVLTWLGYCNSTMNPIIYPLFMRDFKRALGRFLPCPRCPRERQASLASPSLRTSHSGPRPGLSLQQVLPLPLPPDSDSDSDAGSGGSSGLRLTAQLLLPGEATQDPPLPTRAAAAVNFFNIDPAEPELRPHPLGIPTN
T5 sequence (P47898 whole entry): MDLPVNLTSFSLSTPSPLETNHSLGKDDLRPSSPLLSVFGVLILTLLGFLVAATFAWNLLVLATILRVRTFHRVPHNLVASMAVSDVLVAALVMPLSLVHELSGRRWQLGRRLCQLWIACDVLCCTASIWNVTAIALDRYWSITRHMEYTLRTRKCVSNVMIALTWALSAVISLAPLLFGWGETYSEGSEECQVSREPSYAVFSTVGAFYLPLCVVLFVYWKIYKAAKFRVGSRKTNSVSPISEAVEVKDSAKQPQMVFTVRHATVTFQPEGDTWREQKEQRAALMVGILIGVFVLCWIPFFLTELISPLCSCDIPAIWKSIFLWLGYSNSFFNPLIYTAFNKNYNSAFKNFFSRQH
T3 sequence (P14416 whole entry): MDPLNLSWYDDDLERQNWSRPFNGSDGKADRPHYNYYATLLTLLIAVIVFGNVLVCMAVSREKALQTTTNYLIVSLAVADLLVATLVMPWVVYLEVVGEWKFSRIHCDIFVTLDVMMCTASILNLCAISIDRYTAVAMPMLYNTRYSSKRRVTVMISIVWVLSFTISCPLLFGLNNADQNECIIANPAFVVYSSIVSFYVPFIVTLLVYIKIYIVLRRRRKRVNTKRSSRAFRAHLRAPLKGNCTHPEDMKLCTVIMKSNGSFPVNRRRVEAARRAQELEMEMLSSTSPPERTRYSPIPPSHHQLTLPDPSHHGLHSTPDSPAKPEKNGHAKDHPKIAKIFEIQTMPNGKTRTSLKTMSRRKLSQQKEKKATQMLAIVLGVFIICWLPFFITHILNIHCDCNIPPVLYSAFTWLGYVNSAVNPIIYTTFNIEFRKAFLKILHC
T7 sequence (P34969 whole entry): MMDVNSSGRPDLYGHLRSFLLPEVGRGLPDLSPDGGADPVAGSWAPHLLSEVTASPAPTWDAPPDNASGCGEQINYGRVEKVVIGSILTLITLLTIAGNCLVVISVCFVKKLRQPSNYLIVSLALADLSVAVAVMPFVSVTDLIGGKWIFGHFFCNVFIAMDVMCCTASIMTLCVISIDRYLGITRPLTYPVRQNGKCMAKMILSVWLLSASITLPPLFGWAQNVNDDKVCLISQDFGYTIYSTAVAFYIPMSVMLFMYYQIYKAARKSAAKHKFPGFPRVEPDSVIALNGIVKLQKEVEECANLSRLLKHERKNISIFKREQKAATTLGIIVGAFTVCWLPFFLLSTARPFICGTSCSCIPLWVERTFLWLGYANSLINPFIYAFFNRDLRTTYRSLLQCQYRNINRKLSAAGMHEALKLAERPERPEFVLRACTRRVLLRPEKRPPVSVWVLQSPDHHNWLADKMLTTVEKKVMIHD
T4 sequence (P28223 whole entry): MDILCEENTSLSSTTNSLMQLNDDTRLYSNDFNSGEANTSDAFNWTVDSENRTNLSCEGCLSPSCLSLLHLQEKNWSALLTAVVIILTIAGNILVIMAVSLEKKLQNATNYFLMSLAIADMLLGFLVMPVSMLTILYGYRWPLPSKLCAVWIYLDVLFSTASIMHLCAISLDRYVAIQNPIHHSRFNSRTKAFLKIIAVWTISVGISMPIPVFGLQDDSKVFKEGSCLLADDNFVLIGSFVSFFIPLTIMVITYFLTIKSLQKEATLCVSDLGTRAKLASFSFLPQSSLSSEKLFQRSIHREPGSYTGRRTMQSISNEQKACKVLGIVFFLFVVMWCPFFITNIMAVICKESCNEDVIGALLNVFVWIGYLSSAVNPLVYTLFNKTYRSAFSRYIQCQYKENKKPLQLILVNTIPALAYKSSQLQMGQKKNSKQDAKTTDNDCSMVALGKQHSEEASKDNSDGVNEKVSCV

In general, inhibition refers to the change of the read-out against control, counted positive when it falls. For the compound `Cc1ccc2c(c1)c1c(n2-c2ccc(-c3sccc3C)cn2)CCN(C)C1` [Compound No. 148, 2,8-dimethyl-5-(5-(3-methylthiophen-2-yl)pyridin-2-yl)-2,3,4,5-tetrahydro-1H-pyrido[4,3-b]indole], the inhibition at 0.1 µM in experiment [1] was 20%; in experiment [2] it was 4%; in experiment [4], 95%; in experiment [5], 50%; in experiment [6], 5%; in experiment [7], 35%. In experiment [3] (read-out: Dopamine D2L (1 μM), percent inhibition of specific binding, compound at 1 μM), the inhibition at 1 µM is 17%.
As for `Cc1ccc2c(c1)c1c(n2-c2cscc2-c2ccnn2C)CCN(C)C1` [Compound No. 150], the inhibition at 0.1 µM was found to be 36% in experiment [1]; 10% in experiment [2]; 5% in experiment [3]; 53% in experiment [4]; 65% in experiment [5]; 14% in experiment [6]. The inhibition at 0.1 µM in experiment [7] is 88%.
Consider `Cc1ccc2c(c1)c1c(n2-c2cscc2-c2cc3ccccc3s2)CCN(C)C1` [Compound No. 151], for which the inhibition at 0.1 µM was determined as 64% in experiment [1]; 52% in experiment [2]; 1% in experiment [3]; 32% in experiment [4]; 102% in experiment [5]; 28% in experiment [6]. The inhibition at 0.1 µM in experiment [7] is 90%.
Consider `Cc1ccc2c(c1)c1c(n2-c2cscc2C(=O)N(C)C)CCN(C)C1` [Compound No. 152], for which the inhibition at 0.1 µM in experiment [1] is 6%; in experiment [2], 12%; in experiment [3] it was 4%; in experiment [4], 31%; in experiment [5], 14%; in experiment [6], 22%. Besides, in experiment [7], the inhibition at 0.1 µM was found to be 15%.
As to `CNC(=O)c1cccc(-c2cscc2-n2c3c(c4cc(C)ccc42)CN(C)CC3)c1` [Compound No. 154], the inhibition at 0.1 µM in experiment [1] turned out to be 28%; in experiment [2] it was 3%; in experiment [3], 1%; in experiment [4] it was 83%; in experiment [5], 85%; in experiment [6], 7%. In addition, the inhibition at 0.1 µM in experiment [7] was 73%.
For the compound `CNC(=O)c1ccc(-c2cscc2-n2c3c(c4cc(C)ccc42)CN(C)CC3)cc1` [Compound No. 155], the inhibition at 0.1 µM in experiment [1] is 80%; in experiment [2] it was 0%; in experiment [3], 1%; in experiment [4], 27%; in experiment [5] it was 69%; in experiment [6], -6%. The inhibition at 0.1 µM in experiment [7] was found to be 94%.
As for `Cc1ccc2c(c1)c1c(n2-c2ccc(-c3ccc(C)nc3)cn2)CCN(C)C1` [Compound No. 156, 2,8-dimethyl-5-(6′-methyl-3,3′-bipyridin-6-yl)-2,3,4,5-tetrahydro-1H-pyrido[4,3-b]indole], the inhibition at 0.1 µM was 39% in experiment [1]; -13% in experiment [2]; -7% in experiment [3]; 90% in experiment [4]; 41% in experiment [5]; -5% in experiment [6]. In experiment [7], the inhibition at 0.1 µM was 28%.
As for `Cc1ccc2c(c1)c1c(n2-c2ccc3nc(C)ccc3c2)CCN(C)C1` [Compound No. 157, 2,8-dimethyl-5-(2-methyl-quinolin-6-yl)-2,3,4,5-tetrahydro-1H-pyrido[4,3-b]indole], the inhibition at 0.1 µM is 7% in experiment [1]; -1% in experiment [2]; -6% in experiment [3]; 88% in experiment [4]; 20% in experiment [5]; 22% in experiment [6]. The inhibition at 0.1 µM in experiment [7] is 16%.
Consider `Cc1ccc2c(c1)c1c(n2-c2cccc(-c3ccc(S(N)(=O)=O)cc3)c2)CCN(C)C1` [Compound No. 158, 3′-(2,8-dimethyl-3,4-dihydro-1H-pyrido[4,3-b]indol-5(2H)-yl)biphenyl-4-sulfonamide], for which the inhibition at 0.1 µM in experiment [1] stood at 4%; in experiment [2], 0%; in experiment [3] it was 1%; in experiment [4], 91%; in experiment [5], 62%; in experiment [6], 14%. Further, in experiment [7], the inhibition at 0.1 µM amounted to 26%.
